Experimental data published in patent US20240182445A1 (ONO PHARMACEUTICAL CO., LTD., priority 2019, published 2024).

Experiments:
[1] = Mouse brain homogenate binding (BHB); type: in vitro ADME
Description: (§1) These assays were performed according to known methods as generally described in the following references: Conde-Ceide et al. ACS Med. Chem. Lett. 2015, 6, 716-720; Morris et al. J. Med. Chem. 2014, 57, 10192-10197; and Bubser et al. ACS Chem. Neurosci. 2014, 5, 920-942. Abbreviations which have been used in the descriptions of the following tables are; PPB is plasma protein binding; BHB is brain homogenate binding; and CLint is intrinsic clearance in hepatic microsomes.

human TREK-1 [2] = biological target: T1, human TREK-1 (Homo sapiens, UniProt O95069); test: TREK-1 Thallium (Tl+) flux assay, Method 1; type: cell-based; conditions: TREK-1 Thallium (Tl+) flux assay; values without footnote *12 are Method 1
T1 construct: expressed in transfected cells
T1 sequence (O95069 1-426): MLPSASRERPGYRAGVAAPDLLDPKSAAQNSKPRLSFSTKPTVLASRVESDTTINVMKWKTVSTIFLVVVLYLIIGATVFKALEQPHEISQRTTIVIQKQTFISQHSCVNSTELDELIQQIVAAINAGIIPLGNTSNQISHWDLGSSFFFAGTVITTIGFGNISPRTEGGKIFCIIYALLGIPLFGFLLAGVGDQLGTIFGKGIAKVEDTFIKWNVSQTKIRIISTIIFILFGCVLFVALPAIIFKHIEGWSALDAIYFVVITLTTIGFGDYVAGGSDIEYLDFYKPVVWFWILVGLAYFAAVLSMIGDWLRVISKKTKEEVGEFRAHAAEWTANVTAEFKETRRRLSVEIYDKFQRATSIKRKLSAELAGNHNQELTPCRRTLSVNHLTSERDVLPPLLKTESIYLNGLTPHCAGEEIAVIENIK
Outline: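 Readout: Thallos fluorescence ratio, taken 25 s post-thallium relative to the pre-thallium baseline average, then converted to % inhibition. Cells were CHO-K1 stably expressing human TREK-1, dye-loaded and exposed to test compound (vehicle 0.3% DMSO) for 10 min prior to thallium stimulation.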

human TREK-1 [3] = biological target: T1, human TREK-1; test: TREK-1 Manual Patch Clamp (hMPC) assay; type: cell-based; conditions: CHO-K1 cells stably expressing human TREK-1; whole-cell current at 0 mV
Description: The term “patch clamp technique” herein refers to the “gold standard” technique for evaluating TREK channel pharmacology. The detail method is described below.
CHO-K1 cells stably expressing human TREK-1 or HEK293 cells stably expressing human TREK-2 are plated on glass coverslips, and voltage clamped in the whole-cell configuration of the patch clamp technique. Cells were voltage clamped at a holding potential of −80 mV and the stepped to 0 mV for 500 msec. The voltage was subsequently ramped from −120 mV to +80 mV over a 500 msec duration. This step-ramp protocol was repeated every 10 sec. The bathing solution contained the following: 135 mM NaCl, 5 mM KCl, 2 mM CaCl2, 1 mM MgCl2, 5 mM D-Glucose, 10 mM HEPES, 10 mM sucrose (adjusted to pH 7.4 with NaOH, 300 mosmol/kg H2O). The pipette solution contained the following: 135 mM KCl, 2 mM MgCl2, 1 mM EGTA, 10 mM HEPES, 2 mM Na2ATP (adjusted to pH 7.35 with KOH, 285 mosmol/kg H2O). Test compounds were dissolved into the bathing solution. Experiments on TREK-2 were terminated with the addition of the control compound (tert-butyl (3-((4-(benzyloxy)-2-methylphenyl)carbamoyl)-4-chlorophenyl)carbamate) so that maximal inhibition could be determined. The effects of test compound on the currents were calculated at 0 mV using the following equations:
For CHO cells expressing TREK-1 channel: % inhibition=(1-post current/pre current)×100
The compounds shown in Table 2 were prepared in an analogous manner with the appropriate starting materials, and evaluated in our TREK-1 Manual Patch Clamp (hMPC) assay.

CYP1A2 = biological target: T2, CYP1A2 (Homo sapiens, UniProt P05177); test: P450 inhibition 1A2; type: in vitro ADME
T2 sequence (P05177 1-516): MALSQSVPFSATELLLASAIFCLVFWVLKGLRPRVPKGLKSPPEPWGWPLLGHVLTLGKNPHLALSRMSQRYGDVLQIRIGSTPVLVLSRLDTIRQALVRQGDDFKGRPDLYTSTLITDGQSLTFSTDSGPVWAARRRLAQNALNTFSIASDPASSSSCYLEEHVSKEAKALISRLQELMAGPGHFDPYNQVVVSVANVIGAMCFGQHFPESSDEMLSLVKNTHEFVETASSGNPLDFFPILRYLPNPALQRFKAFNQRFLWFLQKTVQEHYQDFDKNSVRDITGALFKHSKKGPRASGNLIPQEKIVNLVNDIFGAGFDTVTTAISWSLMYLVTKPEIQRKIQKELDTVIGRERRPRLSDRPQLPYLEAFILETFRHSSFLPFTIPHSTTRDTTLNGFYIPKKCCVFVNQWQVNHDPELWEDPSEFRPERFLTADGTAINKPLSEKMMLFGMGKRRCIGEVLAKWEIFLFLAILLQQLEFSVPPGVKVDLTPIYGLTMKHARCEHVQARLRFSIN
Description: as §1

[4] = Human hepatic microsomal intrinsic clearance; type: in vitro ADME; conditions: human hepatic microsomes
Description: as §1

plasma protein = test: Human plasma protein binding (PPB); type: in vitro ADME
Description: as §1

CC(=O)N[C@H]1CC[C@@H](n2ncc(Cl)c2C(=O)Nc2ncc(C#Cc3ccccc3)cc2C)CC1 [Compound 12, 1-(cis-4-acetamidocyclohexyl)-4-chloro-N-(3-methyl-5-(phenylethynyl)pyridin-2-yl)-1H-pyrazole-5-carboxamide]
Mouse BHB (% bound) [1]: 99.7 % bound | IC50 (human TREK-1 [2]): 130 nM | IC50 (human TREK-1 [3]): 60 nM | IC50 (CYP1A2): 8600 nM | CLint scaled [4]: 16 mL/min/kg | Human PPB (% bound) (plasma protein): 98.8 % bound
